In PubChem BioAssay AID1918952 (Molecular Pharmacology Branch, DTP, NCI, 2023):

Test system: LG0703-F948-PDC complex spheroid viability
Experiment: Anticancer human tumor LG0703-F948-PDC patient-derived lung adenocarcinoma cell line growth inhibition
Settings: for IC50: curve of first compound; for viability, T/C: stronger effect = lower value; active means viability on the fitted dose curve at most 10% of control; inactive means the rest
How it was run: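 Complex spheroids of tumor cells with HUVEC and human MSCs, exposed to iadademstat combined with other agents. Each agent tested in half-log steps from near clinical Cmax (else 10 microM top), DMSO ≤0.25%.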
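Further: spheroids exposed to agents for seven days before readout.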
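Wherever viability, T/C is given: 100% = DMSO vehicle control wells as normalization base.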

O=C(C=Cc1cccc(S(=O)(=O)Nc2ccccc2)c1)NO + NC1CC1c1ccc(-c2cccc(O)c2)cc1
74.5 nM: IC50 (second compound 3.16 µM)
95.3 nM: IC50 (second compound 10 µM)
active: viability, T/C (second compound 0.1 µM, first compound 0.949 µM) 1.29% | viability, T/C (second compound 0.1 µM, first compound 3 µM) 0.28% | viability, T/C (second compound 0.316 µM, first compound 0.949 µM) 1.3% | viability, T/C (second compound 0.316 µM, first compound 3 µM) 1.01% | viability, T/C (second compound 1 µM, first compound 0.3 µM) 7.01% | viability, T/C (second compound 1 µM, first compound 0.949 µM) 1.57% | viability, T/C (second compound 1 µM, first compound 3 µM) 0.1% | viability, T/C (second compound 3.16 µM, first compound 0.3 µM) 6.95% | viability, T/C (second compound 3.16 µM, first compound 0.949 µM) 1.69% | viability, T/C (second compound 3.16 µM, first compound 3 µM) 0.15% | viability, T/C (second compound 10 µM, first compound 0.3 µM) 7.51% | viability, T/C (second compound 10 µM, first compound 0.949 µM) 1.22% | viability, T/C (second compound 10 µM, first compound 3 µM) 1.1%
70.9 nM: IC50 (second compound 1 µM)
inactive: viability, T/C (second compound 0.1 µM, first compound 0.00949 µM) 113% | viability, T/C (second compound 0.1 µM, first compound 0.03 µM) 74.8% | viability, T/C (second compound 0.1 µM, first compound 0.0949 µM) 35.9% | viability, T/C (second compound 0.1 µM, first compound 0.3 µM) 8.61% | viability, T/C (second compound 0.316 µM, first compound 0.00949 µM) 113% | viability, T/C (second compound 0.316 µM, first compound 0.03 µM) 83.5% | viability, T/C (second compound 0.316 µM, first compound 0.0949 µM) 39.5% | viability, T/C (second compound 0.316 µM, first compound 0.3 µM) 8.31% | viability, T/C (second compound 1 µM, first compound 0.00949 µM) 107% | viability, T/C (second compound 1 µM, first compound 0.03 µM) 93.9% | viability, T/C (second compound 1 µM, first compound 0.0949 µM) 34.8% | viability, T/C (second compound 3.16 µM, first compound 0.00949 µM) 92.3% | viability, T/C (second compound 3.16 µM, first compound 0.03 µM) 80.8% | viability, T/C (second compound 3.16 µM, first compound 0.0949 µM) 42.2% | viability, T/C (second compound 10 µM, first compound 0.00949 µM) 90% | viability, T/C (second compound 10 µM, first compound 0.03 µM) 86.7% | viability, T/C (second compound 10 µM, first compound 0.0949 µM) 50%
70.6 nM: IC50 (second compound 0.316 µM)
61.1 nM: IC50 (second compound 0.1 µM)

CC(C)CC(NC(=O)CNC(=O)c1cc(Cl)ccc1Cl)B1OC(=O)CC(CC(=O)O)(C(=O)O)O1 (stereo not given) + NC1CCC(NC2CC2c2ccccc2)CC1
4.29 nM: IC50 (second compound 1 µM)
1.98 nM: IC50 (second compound 10 µM)
4.54 nM: IC50 (second compound 0.1 µM)
3.05 nM: IC50 (second compound 3.16 µM)
active: viability, T/C (second compound 0.1 µM, first compound 0.0316 µM) 2.45% | viability, T/C (second compound 0.1 µM, first compound 0.1 µM) 0.73% | viability, T/C (second compound 0.316 µM, first compound 0.0316 µM) 2.48% | viability, T/C (second compound 0.316 µM, first compound 0.1 µM) 0.54% | viability, T/C (second compound 1 µM, first compound 0.0316 µM) 2.68% | viability, T/C (second compound 1 µM, first compound 0.1 µM) 1.21% | viability, T/C (second compound 3.16 µM, first compound 0.01 µM) 13.8% | viability, T/C (second compound 3.16 µM, first compound 0.0316 µM) 2.43% | viability, T/C (second compound 3.16 µM, first compound 0.1 µM) 0.36% | viability, T/C (second compound 10 µM, first compound 0.01 µM) 6.56% | viability, T/C (second compound 10 µM, first compound 0.0316 µM) 0.78% | viability, T/C (second compound 10 µM, first compound 0.1 µM) 0.48%
4.94 nM: IC50 (second compound 0.316 µM)
inactive: viability, T/C (second compound 0.1 µM, first compound 0.000316 µM) 118% | viability, T/C (second compound 0.1 µM, first compound 0.001 µM) 95.6% | viability, T/C (second compound 0.1 µM, first compound 0.00316 µM) 66.7% | viability, T/C (second compound 0.1 µM, first compound 0.01 µM) 19.8% | viability, T/C (second compound 0.316 µM, first compound 0.000316 µM) 104% | viability, T/C (second compound 0.316 µM, first compound 0.001 µM) 102% | viability, T/C (second compound 0.316 µM, first compound 0.00316 µM) 69.4% | viability, T/C (second compound 0.316 µM, first compound 0.01 µM) 19% | viability, T/C (second compound 1 µM, first compound 0.000316 µM) 118% | viability, T/C (second compound 1 µM, first compound 0.001 µM) 115% | viability, T/C (second compound 1 µM, first compound 0.00316 µM) 60.8% | viability, T/C (second compound 1 µM, first compound 0.01 µM) 17% | viability, T/C (second compound 3.16 µM, first compound 0.000316 µM) 112% | viability, T/C (second compound 3.16 µM, first compound 0.001 µM) 127% | viability, T/C (second compound 3.16 µM, first compound 0.00316 µM) 47.6% | viability, T/C (second compound 10 µM, first compound 0.000316 µM) 109% | viability, T/C (second compound 10 µM, first compound 0.001 µM) 97.7% | viability, T/C (second compound 10 µM, first compound 0.00316 µM) 17.4%
